Results on three molecules are retold here after publication PMC5013675, “Nucleotide binding by the widespread high-affinity cyclic di-GMP receptor MshEN domain” (Nature Communications, 2016).

pKd: −log10 of the molar value. “And” between values parts separate entries of the source, which are not always exact repeats. Equal values may be shown once.

In experiment [1] the test system is VcMshEN wild type. It counts as binding, Vibrio cholerae.
Experiment [2] concerns the target VcMshEN1-145 (wild type) (Vibrio cholerae, UniProt Q9KUV7). The experiment in a line: biochemical. The class given is binding.
The target of experiment [3] is T1, D. geothermalis PilB_2 (ABF44566 151-300) (Deinococcus geothermalis, UniProt Q1J1R8).
T1 sequence (Q1J1R8 151-300): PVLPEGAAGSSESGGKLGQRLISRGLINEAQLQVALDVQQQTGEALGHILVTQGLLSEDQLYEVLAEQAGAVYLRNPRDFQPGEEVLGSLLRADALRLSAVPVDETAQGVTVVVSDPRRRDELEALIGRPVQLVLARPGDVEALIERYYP
Kind of experiment: ITC titration of D. geothermalis PilB_2 with c-di-GMP. It counts as binding. In general terms: Isothermal titration calorimetry measures the heat released or taken up as one component is titrated into another.

Experiment [4] concerns the target MshEN analogues, diverse bacterial proteins with the c-di-GMP-binding motif. The note with it: read-out: binding constants.
The target of experiment [5] is P. aeruginosa PA3740 (AAG07127). The note with it: cited from earlier work.
Experiment [6] concerns the target GST (Schistosoma japonicum, UniProt P08515). Kind of experiment: ITC control, GST alone with c-di-GMP. It counts as binding.
For experiment [7], the system named is full-length MshE protein (ATPase). Conditions: cited from earlier work.
Experiment [8] deals with V. cholerae MshEN_N1-65 (Vibrio cholerae, UniProt Q9KUV7). The experiment in a line: biochemical. It counts as binding.
Experiment [9] addresses D. geothermalis PilB_3 (ABF44566 301-475). The experiment in a line: ITC titration of D. geothermalis PilB_3 with c-di-GMP. The class given is binding, Deinococcus geothermalis. Conditions: ABF44566_III, ND = not detectable.
Experiment [10] has as its target T2, Moorella thermoacetica GspE (ABC19863 1-141) (Neomoorella thermoacetica, UniProt A0AAC9HIF0).
T2 sequence (A0AAC9HIF0 1-141): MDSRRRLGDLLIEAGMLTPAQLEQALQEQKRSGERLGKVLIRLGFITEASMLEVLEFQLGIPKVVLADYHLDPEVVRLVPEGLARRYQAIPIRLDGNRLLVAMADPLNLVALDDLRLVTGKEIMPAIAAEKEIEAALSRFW
The experiment in a line: ITC titration of Moorella thermoacetica GspE MshEN with c-di-GMP. It counts as binding.

Experiment [11] has as its target VcMshEN G40I (Vibrio cholerae, UniProt Q9KUV7, G40I). The class given is binding.
For experiment [12], the target named is Aeromonas veronii CheA (EKB11881 261-390). It counts as binding. The note with it: read-out: Dissociation constant (KD).

For cGMP, the “Binding to the MshEN domain” value in experiment [1] is “cannot bind”.
For c-di-AMP, in experiment [2], the “Dissociation constant (KD)” value is listed as “non-detectable” and the KD entry is given as “non-detectable”.
For `Nc1nc2c(ncn2[C@@H]2O[C@@H]3CO[P@](=O)(O)O[C@H]4[C@@H](O)[C@H](n5cnc6c(=O)[nH]c(N)nc65)O[C@@H]4CO[P@](=O)(O)O[C@H]3[C@H]2O)c(=O)[nH]1` [c-di-GMP, Cyclic dimeric GMP], the Ligand/protein ratio is listed as 1.01 in experiment [3], 0.99 in experiment [8] and 1.01 in [10]. For the same molecule, the pKd is 7.85 and 7.87 in experiment [3] (KD, middle domain of PilB (ABF44566)); ~6.30 in [4]; ~7.52 in experiment [5]; 6.46 in [8]; 6.34 in experiment [10] (read-out: Dissociation constant (KD)); 5.59 in experiment [12]. Also, the pKd in experiment [2] is 6.30. The c-di-GMP binding entry in experiment [6] is “no c-di-GMP binding”. For the same molecule, in [7], the “Stimulation of ATPase activity by external c-di-GMP” value is listed as < 10%. Further, the “Dissociation constant (KD)” value in experiment [9] is listed as “completely lost it binding affinity”. Moreover, the “Melting temperature Tm, + c-di-GMP” value in [1] was 71 ºC. Also, the Melting temperature increase in experiment [1] is 9 º. The “Tm Difference (+ c-di-GMP minus absence)” value in experiment [1] was 10 ºC. Moreover, in experiment [11], the “Fold change of KD” value came out at 72.0.
